Reference: US20030091975A1, “Multiple determinants for metabolic phenotypes” (priority 2001, published 2003)

Key:
Format in all cases: binding, rabbit
Caffeine-Ab = experiment: Competitive antigen ELISA, antibody specificity of caffeine-Ab; conditions: ideal antibody specificity result hypothesized; 0 = no inhibition or no higher than 40% at 5×10^−3 M
Description: (§1) BSA, antibodies, Tween™ 20 and horse radish peroxidase are added to buffers and water just prior to use. Urine samples are usually collected four hours after drinking a cup of coffee (instant or brewed with approximately 100 mg of caffeine per cup) and stored at −20° C. as 1-mL aliquots in 1.5-mL microtubes. For the ELISA, the urine samples are diluted with isotonic sodium phosphate buffer, pH 7.5 (310 mosM) to give concentrations of caffeine, 1.7-DMX and 1,7-DMU no higher than 3×10^−6 M in the microtiter plate wells. Wells of the ELISA plate are washed with a Nunc-Immuno wash 12 washer. Sixteen milliliters of a solution of 6.6 μg ml^−1 of isolated IgG antibodies is prepared in a 100 mM sodium carbonate buffer, pH 9.6, and 150 μL of this solution is pipetted in each well of a microtiter plate using a eight channel pipet (Brinkmann Transferpette™-8 50-200 μL) and 200 μL Flex tips from Brinkmann). After coating the wells with antibodies at 4° C. for 20 hours, the wells are washed 3 times with the isotonic sodium phosphate buffer containing 0.05% Tween™ 20 (IPBT) and properly drained by inverting the plate and absorbing the liquid on to a piece of paper towel. Thirty milliliters of a solution of a IPBT solution containing 1% BSA is prepared and 150 μL of this solution is pipetted in each well using a eight channel pipet (Brinkmann Transferpette ™-8 50-200 μL) and 200 μL yellow tips (Sarstedt yellow tips for P200 Gilson Pipetman). After 3 hours at room temperature, the wells are washed 3 times with IPBT solution and drained. Samples of 400 μL for determination of caffeine, 1,7-DMX and 1,7-DMU are prepared in 1.5-mL microtubes using Sarstedt yellow tips and a P200 Gilson Pipetman. Then, 200 μL of each sample are pipetted in duplicate in a Falcon 96-well microtest tissue culture plate according to the pattern shown in FIG. 22, using Sarstedt yellow tips and a P200 Gilson Pipetman. Using an eight channel pipet (Brinkmann Transferpette™-8 50-200 μL) and changing the tips of the eight channel pipet (200μL Flex tips from Brinkmann) at each row, 150 μL of samples are transferred in the corresponding wells of a 96-well ELISA microtiter plate coated with antibodies. After the addition of the samples, the microtiter plates are covered and left standing at room temperature for 2 h. While the plate is left standing the substrate buffer without the hydrogen peroxide and o-phenylenediamine hydrochloride is prepared (25 mM citric acid and 50 mM sodium phosphate dibasic buffer, pH 5.0). The microtiter plate is washed 3 times with the IPBT solution and 3 times with a 0.05% Tween™ 20 solution and drained. Then, 50 μL of hydrogen peroxide and 40 mg of o-phenylenediamine are added to the substrate buffer. One hundred fifty microliters (150 μL) of the substrate buffer solution is then added to each well using a eight channel pipet (Brinkmann Transferpette™-8 50-200 μL) and 200 μL Flex tips (Brinkmann). The microtiter plate is covered and shaken for 25-30 min at room temperature and the enzymatic reaction is stopped by adding 50 μL/well of a 2.5 N HCl solution using an eight channel pipet (Brinkmann Transferpette™-8 50-200 μL) and 200L Flex tips (Brinkmann).

1,7-DMX-Ab = experiment: Competitive antigen ELISA, antibody specificity of 1,7-DMX-Ab; conditions: ideal antibody specificity result hypothesized; 0 = no inhibition or no higher than 40% at 5×10^−3 M
Description: as §1

1,7-DMU-Ab = experiment: Competitive antigen ELISA, antibody specificity of 1,7-DMU-Ab; conditions: ideal antibody specificity result hypothesized; 0 = no inhibition or no higher than 40% at 5×10^−3 M
Description: as §1

AAMU-Ab = experiment: Competitive antigen ELISA, cross-reactivity of AAMU-Ab; conditions: for % Cross-Reaction AAMU-Ab: 0 = absence of inhibition or inhibition no higher than 40% at the highest concentration tested (5×10^−3 M)
Description: (§2) Buffers and water without additives are filtered through millipore filters and kept for 1 week. BSA, antibodies, Tween™ 20 and horse radish peroxidase conjugates are added to these buffers and water just prior to use. Urine samples are usually collected 4 hours after drinking a cup of coffee (instant or brewed with approximately 100 mg of caffeine per cup) and stored at −80° C. The urine samples are diluted 10 times with sodium phosphate buffer (620 mosm, pH 7.50) and are subsequently diluted with water to give concentrations of AAMU and 1X no higher than 3×10^−6 M in the ELISA. All the pipettings are done with an eight-channel pipette, except those of the antibody and sample solutions. Starting with the last well, 100 μL of a carbonate buffer (100 mM, pH 9.6) containing 2.5 μg mL-1 antibodies are added to each well. After 90 min. at room temperature, the wells are washed three times with […] of TPB: isotonic sodium phosphate buffer (310 mosm, pH 7.50) containing 0.05% Tween™ 20.
(§3) After the initial wash, unoccupied sites are blocked by incubation for 90 min. at room temperature with 100 μL TBP containing 3% BSA. The wells are washed four times with 100 μL TPB. […] The microplate is gently shaken with an orbital shaker at room temperature for 3-4 hours. The wells are washed three times with 100 μL TPB containing 1% BSA and three times with water containing 0.05% Tween ™ 20. To the washed plate is added 150 μL of a substrate buffer composed of citric acid (25 mM) and sodium phosphate dibasic buffer (50 mM, pH 5.0) containing 0.06% hydrogen peroxide and 0.04% o-phenylenediamine hydrochloride.
(§4) Buffers and water without additives were filtered through millipore filters and kept for 1 week. BSA, antibodies, Tween ™ 20 and horse radish peroxidase conjugates were added to these buffers and water just prior to use. Urine samples were usually collected 4 hours after drinking a cup of coffee (instant or brewed with approximately 100 mg of caffeine per cup) and stored at 80° C. They were diluted 10 times with sodium phosphate buffer (620 mosm, pH 7.50) and were subsequently diluted with water to give concentrations of AAMU and 1X no higher than 3×10^−6 M in the ELISA. All the pipettings were done with an eight-channel pipette, except those of the antibody and sample solutions. Starting with the last well, 100 μL of a carbonate buffer (100 mM, pH 9.6) containing 2.5 μg mL^−1 antibodies was pipetted. After 90 min. at room temperature, the wells were washed three times with 100 μL of TPB: isotonic sodium phosphate buffer (310 mosm, pH 7.50) containing 0.05% Tween™ 20.
(§5) After the initial wash, unoccupied sites were blocked by incubation for 90 min. at room temperature with 100 μL TBP containing 3% BSA. The wells were washed four times with 100 μL TPB. […] The microplate was gently shaken with an orbital shaker at room temperature for 3-4 hours. The wells were washed three times with 100 μL with TPB containing 1% BSA and three times with water containing 0.05% Tween™ 20. To the washed plate was added 150 μL of a substrate buffer composed of citric acid (25 mM) and sodium phosphate dibasic buffer (50 mM, pH 5.0) containing 0.06% hydrogen peroxide and 0.04% o-phenylenediamine hydrochloride. After 20 min. at room temperature with shaking, the reaction was stopped with 50 μL of 2.5 N HCl.
(§6) The cross reactivities of AAMU-Ab and 1X-Ab were tested using a wide variety of caffeine metabolites and structural analogs (Table 5 below).

1X-Ab = experiment: Competitive antigen ELISA, cross-reactivity of 1X-Ab; conditions: 0 = absence of inhibition or inhibition no higher than 40% at the highest concentration tested (5×10^−3 M)
Description: as §2, §3, §4, §5, §6

## Cn1c(=O)[nH]c(=O)c2[nH]cnc21 [3-Methyl Xanthine]
Caffeine-Ab
  % Cross-reaction Caffeine-Ab: 0%
1,7-DMX-Ab
  % Cross-reaction 1,7-DMX-Ab: 0%
1,7-DMU-Ab
  % Cross-reaction 1,7-DMU-Ab: 0%
AAMU-Ab
  % Cross-Reaction AAMU-Ab: 0%
1X-Ab
  % Cross-Reaction 1X-Ab: 0%

## Cn1c(=O)[nH]c(=O)c2[nH]c(=O)[nH]c21 [3-Methyluric acid]
Caffeine-Ab
  % Cross-reaction Caffeine-Ab: 0%
1,7-DMX-Ab
  % Cross-reaction 1,7-DMX-Ab: 0%
1,7-DMU-Ab
  % Cross-reaction 1,7-DMU-Ab: 0%

## CC(=O)Nc1c(N)n(C)c(=O)n(C)c1=O [5-Acetamino-6-amino-1,3-dimethyluracil]
Caffeine-Ab
  % Cross-reaction Caffeine-Ab: 0%
1,7-DMX-Ab
  % Cross-reaction 1,7-DMX-Ab: 0%
1,7-DMU-Ab
  % Cross-reaction 1,7-DMU-Ab: 0%
AAMU-Ab
  % Cross-Reaction AAMU-Ab: 0%
1X-Ab
  % Cross-Reaction 1X-Ab: 0%

## CC(=O)Nc1c(N)n(C)c(=O)[nH]c1=O [5-Acetamino-6-amino-1-methyluracil]
Caffeine-Ab
  % Cross-reaction Caffeine-Ab: 0%
1,7-DMX-Ab
  % Cross-reaction 1,7-DMX-Ab: 0%
1,7-DMU-Ab
  % Cross-reaction 1,7-DMU-Ab: 0%
AAMU-Ab
  % Cross-Reaction AAMU-Ab: 100%
AAMU-Ab; read-out: concentration required for 50% inhibition in the competitive antigen ELISA, AAMU-Ab
  IC50: 1.5 µM
1X-Ab
  % Cross-Reaction 1X-Ab: 0%

## CC(=O)Nc1c(N)[nH]c(=O)[nH]c1=O [5-Acetamino-6-amino-uracil]
Caffeine-Ab
  % Cross-reaction Caffeine-Ab: 0%
1,7-DMX-Ab
  % Cross-reaction 1,7-DMX-Ab: 0%
1,7-DMU-Ab
  % Cross-reaction 1,7-DMU-Ab: 0%
AAMU-Ab
  % Cross-Reaction AAMU-Ab: 0.6%
1X-Ab
  % Cross-Reaction 1X-Ab: 0%

## Cn1cnc2[nH]c(=O)[nH]c(=O)c21 [7-Methyl Xanthine]
Caffeine-Ab
  % Cross-reaction Caffeine-Ab: 0%
1,7-DMX-Ab
  % Cross-reaction 1,7-DMX-Ab: 0%
1,7-DMU-Ab
  % Cross-reaction 1,7-DMU-Ab: 0%
AAMU-Ab
  % Cross-Reaction AAMU-Ab: 0%
1X-Ab
  % Cross-Reaction 1X-Ab: 0%

## Cn1c(=O)[nH]c2[nH]c(=O)[nH]c(=O)c21 [7-Methyluric acid]
Caffeine-Ab
  % Cross-reaction Caffeine-Ab: 0%
1,7-DMX-Ab
  % Cross-reaction 1,7-DMX-Ab: 0%
1,7-DMU-Ab
  % Cross-reaction 1,7-DMU-Ab: 0%

## Cc1nc2[nH]c(=O)[nH]c(=O)c2[nH]1 [8-Methyl Xanthine]
Caffeine-Ab
  % Cross-reaction Caffeine-Ab: 0%
1,7-DMX-Ab
  % Cross-reaction 1,7-DMX-Ab: 0%
1,7-DMU-Ab
  % Cross-reaction 1,7-DMU-Ab: 0%
AAMU-Ab
  % Cross-Reaction AAMU-Ab: 0%
1X-Ab
  % Cross-Reaction 1X-Ab: 0%

## Nc1nc2nc[nH]c2c(=O)[nH]1 [Guanine]
Caffeine-Ab
  % Cross-reaction Caffeine-Ab: 0%
1,7-DMX-Ab
  % Cross-reaction 1,7-DMX-Ab: 0%
1,7-DMU-Ab
  % Cross-reaction 1,7-DMU-Ab: 0%
AAMU-Ab
  % Cross-Reaction AAMU-Ab: 0%
1X-Ab
  % Cross-Reaction 1X-Ab: 0%

## O=c1[nH]cnc2nc[nH]c12 [Hypoxanthine]
Caffeine-Ab
  % Cross-reaction Caffeine-Ab: 0%
1,7-DMX-Ab
  % Cross-reaction 1,7-DMX-Ab: 0%
1,7-DMU-Ab
  % Cross-reaction 1,7-DMU-Ab: 0%
AAMU-Ab
  % Cross-Reaction AAMU-Ab: 0%
1X-Ab
  % Cross-Reaction 1X-Ab: 0%

## O=c1cc[nH]c(=O)[nH]1 [Uracil]
Caffeine-Ab
  % Cross-reaction Caffeine-Ab: 0%
1,7-DMX-Ab
  % Cross-reaction 1,7-DMX-Ab: 0%
1,7-DMU-Ab
  % Cross-reaction 1,7-DMU-Ab: 0%
AAMU-Ab
  % Cross-Reaction AAMU-Ab: 0%
1X-Ab
  % Cross-Reaction 1X-Ab: 0%
